Bridge positions count the residues as written; N and C are the ends. Square brackets hold non-standard residues; d marks the D form. Peptide text beside a SMILES is read from it. dPhe(3,4-F2) = N[C@H](Cc1ccc(F)c(F)c1)C(=O)O; dPhe(3-Cl) = N[C@H](Cc1cccc(Cl)c1)C(=O)O; dPhe(4-Cl) = N[C@H](Cc1ccc(Cl)cc1)C(=O)O; dPhe(2-Cl) = N[C@H](Cc1ccccc1Cl)C(=O)O; dPhe(4-F) = N[C@H](Cc1ccc(F)cc1)C(=O)O; dPhe(2-F) = N[C@H](Cc1ccccc1F)C(=O)O; Nle = CCCC[C@H](N)C(=O)O; Orn = NCCC[C@H](N)C(=O)O; Dab = NCC[C@H](N)C(=O)O
Tests used:
hMCR-4 = hMCR-4 (Homo sapiens (Human), UniProt P32245); assay: Competitive inhibition binding assay using [I125]-NDP-α-MSH, hMCR-4; settings: membrane homogenates of HEK-293 cells, human recombinant receptor, averaged, read-out: MC-4 Ki (average)
hMCR-4, sequence (P32245 whole entry): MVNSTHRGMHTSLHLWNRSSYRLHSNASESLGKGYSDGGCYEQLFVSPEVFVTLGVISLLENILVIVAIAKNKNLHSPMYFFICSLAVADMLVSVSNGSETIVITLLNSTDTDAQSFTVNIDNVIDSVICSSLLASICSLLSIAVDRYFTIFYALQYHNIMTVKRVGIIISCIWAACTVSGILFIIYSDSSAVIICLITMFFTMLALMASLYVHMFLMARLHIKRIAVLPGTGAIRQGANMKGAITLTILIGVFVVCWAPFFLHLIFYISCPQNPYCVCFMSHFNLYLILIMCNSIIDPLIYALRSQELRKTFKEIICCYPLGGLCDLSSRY
Experimental: (§1) A competitive inhibition binding assay was performed using membrane homogenates prepared from HEK-293 cells that express recombinant hMCR-1a or hMCR-4 (in each instance where the h prefix refers to human), or alternatively membrane homogenates from B16-F10 mouse melanoma cells containing endogenous murine MCR-1. In the examples that follow, all MCR-1 and MCR-4 values are for human recombinant receptors, unless otherwise noted. Assays were performed in 96 well polypropylene round-bottom plates (VWR catalog number 12777-030). […] After incubation for 90 minutes at 37° C., the assay mixture was filtered onto GF/B Unifilter plates (Perkin-Elmer catalog number 6005177) and washed with 3 mL of ice-cold buffer per well. Filters were air dried and 35 μL of scintillation cocktail added to each well. Plates were counted in a Microbeta counter for bound radioactivity. […] Each assay was conducted in duplicate and the actual mean values are described, with results less than 0% reported as 0%. Ki values for peptides of the present invention were determined using Graph-Pad Prism® curve-fitting software.
(§2) Peptides of the following structures were synthesized and averaged MCR-1 and MCR-4 Ki values were determined as indicated. […] All results are expressed in nM except for Emax values, which are percentage values. Peptides with the captioned primary sequence were synthesized and purified as described in Section 5 above, with the resulting peptide having the structure depicted.

hMCR-1a = hMCR-1a (Homo sapiens (Human), UniProt Q01726); assay: Competitive inhibition binding assay using [I125]-NDP-α-MSH, hMCR-1a; settings: membrane homogenates of HEK-293 cells, human recombinant receptor, averaged, read-out: MC-1 Ki (average)
hMCR-1a, sequence (Q01726 whole entry): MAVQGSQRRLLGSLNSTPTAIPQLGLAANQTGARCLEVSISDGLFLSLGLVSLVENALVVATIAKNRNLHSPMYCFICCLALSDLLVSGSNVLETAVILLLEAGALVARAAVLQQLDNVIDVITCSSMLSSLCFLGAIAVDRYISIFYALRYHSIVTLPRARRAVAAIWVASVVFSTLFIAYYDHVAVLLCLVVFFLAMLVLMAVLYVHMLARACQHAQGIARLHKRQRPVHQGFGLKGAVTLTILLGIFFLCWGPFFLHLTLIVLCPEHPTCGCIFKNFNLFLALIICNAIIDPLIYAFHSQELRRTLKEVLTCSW
Experimental: as §1, §2

hMCR-1 = hMCR-1 (Homo sapiens (Human), UniProt Q01726); assay: Assay for agonist activity: intracellular cAMP accumulation in HBL human melanoma cells; type: cell-based; settings: for EC50: HBL cells expressing hMCR-1, averaged, read-out: MC-1 EC50 (average; cAMP HBL)
hMCR-1, sequence (Q01726 whole entry): as above
Experimental: Confluent HBL cells that express hMCR-1 or HEK-293 cells that express recombinant hMCR-4 were detached from culture plates by incubation in enzyme-free cell dissociation buffer. Dispersed cells were suspended in Earle's Balanced Salt Solution containing 10 mM HEPES (pH 7.5), 1 mM MgCl2, 1 mM glutamine, 0.5% albumin and 0.3 mM 3-isobutyl-1-methyl-xanthine (IBMX), a phosphodiesterase inhibitor. The cells were plated in 96-well plates at a density of 0.4×10^5 cells per well for HBL cells and 0.5×10^5 cells per well for HEK-293 cells and pre-incubated for 10 minutes. Cells were exposed for 15 minutes at 37° C. to peptides of the present invention dissolved in DMSO (final DMSO concentration of 1%) at a concentration range of 0.05-5000 nM in a total assay volume of 200 μL. […] Data analysis was performed by nonlinear regression analysis with Graph-Pad Prism® software.
as §2

SMILES | Ki (hMCR-4) [nM] | Ki (hMCR-1a) [nM] | EC50 (hMCR-1) [nM] | Emax (hMCR-1; HBL, HBL cells, maximum efficacy compared to reference agonist NDP-α-MSH, read-out: MC-1 Emax (average; cAMP HBL)) [%]
CCCC[C@H](NC(C)=O)C(=O)N[C@H]1CCC(=O)NCC[C@@H](C(=O)N[C@@H](C)C(N)=O)NC(=O)[C@H](CCCNC(=N)N)NC(=O)[C@@H](Cc2ccccc2)NC(=O)[C@H](Cc2c[nH]cn2)NC1=O [Example 9.25, Ac-Nle-cyclo(Glu-His-D-Phe-Arg-Dab)-Ala-NH2] (Ac-[Nle]EH[dF]R[Dab]A-NH2; lactam 2-6) | 7480 | 2 | 0.08 | 
CCCC[C@H](NC(C)=O)C(=O)N[C@H]1CCC(=O)NC[C@@H](C(=O)N[C@@H](Cc2c[nH]c3ccccc23)C(=O)O)NC(=O)[C@H](CCCNC(=N)N)NC(=O)[C@@H](Cc2ccccc2)NC(=O)[C@H](Cc2c[nH]cn2)NC1=O [Example 9.26, Ac-Nle-cyclo(Glu-His-D-Phe-Arg-Dap)-Trp-OH] | 4700 | 1 |  | 81
CCCC[C@H](NC(C)=O)C(=O)N[C@H]1CCC(=O)NCC[C@@H](C(N)=O)NC(=O)[C@H](CCCNC(=N)N)NC(=O)[C@@H](Cc2ccccc2)NC(=O)[C@H](Cc2c[nH]cn2)NC1=O [Example 9.32, Ac-Nle-cyclo(Glu-His-D-Phe-Arg-Dab)-NH2] (Ac-[Nle]EH[dF]R[Dab]-NH2; lactam 2-6) | 10000 | 7 | 0.32 | 
CCCC[C@H](NC(C)=O)C(=O)N[C@H]1CCC(=O)NCC[C@@H](C(N)=O)NC(=O)[C@H](C)NC(=O)[C@@H](Cc2ccccc2)NC(=O)[C@H](Cc2c[nH]cn2)NC1=O [Example 9.33, Ac-Nle-cyclo(Glu-His-D-Phe-Ala-Dab)-NH2] (Ac-[Nle]EH[dF]A[Dab]-NH2; lactam 2-6) | 10000 | 645 | 44 | 
CCCC[C@H](NC(C)=O)C(=O)N[C@H]1CCC(=O)NCC[C@@H](C(=O)N[C@@H](Cc2c[nH]c3ccccc23)C(N)=O)NC(=O)CNC(=O)[C@@H](Cc2ccccc2)NC(=O)[C@H](Cc2c[nH]cn2)NC1=O [Example 9.34, Ac-Nle-cyclo(Glu-His-D-Phe-Gly-Dab)-Trp-NH2] (Ac-[Nle]EH[dF]G[Dab]W-NH2; lactam 2-6) | 10000 | 9 | 4 | 
CCCC[C@H](NC(C)=O)C(=O)N[C@H]1CCC(=O)NCC[C@@H](C(=O)N[C@@H](Cc2c[nH]c3ccccc23)C(N)=O)NC(=O)[C@H](C)NC(=O)[C@@H](Cc2ccccc2)NC(=O)[C@H](Cc2c[nH]cn2)NC1=O [Example 9.35, Ac-Nle-cyclo(Glu-His-D-Phe-Ala-Dab)-Trp-NH2] (Ac-[Nle]EH[dF]A[Dab]W-NH2; lactam 2-6) | 10000 | 0.8 | 0.115 | 
CCCC[C@H](NC(C)=O)C(=O)N[C@H]1CCC(=O)NCC[C@@H](C(=O)N[C@@H](CCCCN)C(N)=O)NC(=O)[C@H](CCCNC(=N)N)NC(=O)[C@@H](Cc2ccccc2)NC(=O)[C@H](Cc2c[nH]cn2)NC1=O [Example 9.39, Ac-Nle-cyclo(Glu-His-D-Phe-Arg-Dab)-Lys-NH2] (Ac-[Nle]EH[dF]R[Dab]K-NH2; lactam 2-6) | 7380 | 2 | 0.175 | 
CCCC[C@H](NC(C)=O)C(=O)N[C@H]1CCC(=O)NCC[C@@H](C(N)=O)NC(=O)[C@H](CCCNC(=N)N)NC(=O)[C@@H](Cc2ccccc2Cl)NC(=O)[C@H](CCCN)NC1=O [Example 9.57, Ac-Nle-cyclo(Glu-Orn-D-Phe(2-Cl)-Arg-Dab)-NH2] (Ac-[Nle]E[Orn][dPhe(2-Cl)]R[Dab]-NH2; lactam 2-6) | 10000 | 30 | 1 | 
CCCC[C@H](NC(C)=O)C(=O)N[C@H]1CCC(=O)NCC[C@@H](C(N)=O)NC(=O)[C@H](CCCNC(=N)N)NC(=O)[C@@H](Cc2cccc(Cl)c2)NC(=O)[C@H](CCCN)NC1=O [Example 9.58, Ac-Nle-cyclo(Glu-Orn-D-Phe(3-Cl)-Arg-Dab)-NH2] (Ac-[Nle]E[Orn][dPhe(3-Cl)]R[Dab]-NH2; lactam 2-6) | 10000 | 35 | 2 | 
CCCC[C@H](NC(C)=O)C(=O)N[C@H]1CCC(=O)NCC[C@@H](C(N)=O)NC(=O)[C@H](CCCNC(=N)N)NC(=O)[C@@H](Cc2ccc(Cl)cc2)NC(=O)[C@H](CCCN)NC1=O [Example 9.59, Ac-Nle-cyclo(Glu-Orn-D-Phe(4-Cl)-Arg-Dab)-NH2] (Ac-[Nle]E[Orn][dPhe(4-Cl)]R[Dab]-NH2; lactam 2-6) | 1240 | 2 | 0.1 | 
CCCC[C@H](NC(C)=O)C(=O)N[C@H]1CCC(=O)NCC[C@@H](C(N)=O)NC(=O)[C@H](CCCNC(=N)N)NC(=O)[C@@H](Cc2ccccc2F)NC(=O)[C@H](CCCN)NC1=O [Example 9.60, Ac-Nle-cyclo(Glu-Orn-D-Phe(2-F)-Arg-Dab)-NH2] (Ac-[Nle]E[Orn][dPhe(2-F)]R[Dab]-NH2; lactam 2-6) | 10000 | 18 | 0.8 | 
CCCC[C@H](NC(C)=O)C(=O)N[C@H]1CCC(=O)NCC[C@@H](C(N)=O)NC(=O)[C@H](CCCNC(=N)N)NC(=O)[C@@H](Cc2ccc(F)cc2)NC(=O)[C@H](CCCN)NC1=O [Example 9.61, Ac-Nle-cyclo(Glu-Orn-D-Phe(4-F)-Arg-Dab)-NH2] (Ac-[Nle]E[Orn][dPhe(4-F)]R[Dab]-NH2; lactam 2-6) | 10000 | 20 | 1 | 
CCCC[C@H](NC(C)=O)C(=O)N[C@H]1CCC(=O)NCC[C@@H](C(N)=O)NC(=O)[C@H](CCCNC(=N)N)NC(=O)[C@@H](Cc2ccc(F)c(F)c2)NC(=O)[C@H](CCCN)NC1=O [Example 9.62, Ac-Nle-cyclo(Glu-Orn-D-Phe(3,4-F)-Arg-Dab)-NH2] (Ac-[Nle]E[Orn][dPhe(3,4-F2)]R[Dab]-NH2; lactam 2-6) | 10000 | 40 | 1 | 
CCCC[C@H](NC(C)=O)C(=O)N[C@H]1CCC(=O)NCC[C@@H](C(N)=O)NC(=O)[C@H](CCCNC(=N)N)NC(=O)[C@@H](Cc2ccc(OC)cc2)NC(=O)[C@H](CCCN)NC1=O [Example 9.64, Ac-Nle-cyclo(Glu-Orn-D-Phe(4-OMe)-Arg-Dab)-NH2] (Ac-[Nle]E[Orn][dY](Me)R[Dab]-NH2; lactam 2-6) | 10000 | 2 | 0.12 | 
